# Results reported in patent US20240368163A1, “COMPOUNDS AND METHODS FOR MODULATING SPLICING” (REMIX THERAPEUTICS INC., priority 2021, published 2024).
# Key:
# Assay type in all cases: cell-based, human
# MYB [1] = experiment: Splicing RT-qPCR assay, MYB mRNA canonical junction (CJ) and alternative junction (AJ); details: Homo sapiens; for AC50: increase in AJ mRNA
# Experimental: (§1) Compounds described herein were used to modulate RNA transcript abundance in cells. The expression of a target mRNA was measured by detecting the formation of an exon-exon junction in the canonical transcript (CJ). A compound mediated exon-inclusion event was detected by observing an increase in formation of a new junction with an alternative exon (AJ). Real-time qPCR assays were used to detect these splicing switches and interrogate the potency of various compounds towards different target genes. A high-throughput real time quantitative PCR (RT-qPCR) assay was developed to measure these two isoforms of the mRNA (CJ and AJ) for exemplary genes, such as HTT, SMN2, and MYB, together with a control housekeeping gene, GAPDH or GUSB or PPIA, used for normalization. Briefly, the A673 or K562 cell line was treated with various compounds described herein (e.g., compounds of Formula (I)). After treatment, the levels of the HTT, MYB, or SMN2 mRNA targets were determined from each sample of cell lysate by cDNA synthesis followed by qPCR.
# (§2) The A673 cell line was cultured in DMEM with 10% FBS. Cells were diluted with full growth media and plated in a 96-well plate (15,000 cells in 100 ul media per well). The plate was incubated at 37° C. with 5% CO2 for 24 hours to allow cells to adhere. An 11-point 3-fold serial dilution of the compounds was made in DMSO then diluted in media in an intermediate plate. Compounds were transferred from the intermediate plate to the cell plate with the top dose at a final concentration of 10 uM in the well. Final DMSO concentration was kept at or below 0.25%. The cell plate was returned to the incubator at 37° C. with 5% CO2 for an additional 24 hours.
# (§3) The K562 cell line was cultured in IMDM with 10% FBS. For K562, cells were diluted with full growth media and plated in either a 96-well plate (50,000 cells in 50 uL media per well) or a 384-well plate (8,000-40,000 cells in 45 uL media per well). An 11-point 3-fold serial dilution of the compounds were made in DMSO then diluted in media in an intermediate plate. Compound was transferred from the intermediate plate to the cell plate with the top dose at a final concentration of 10 uM in the well. Final DMSO concentration was kept at or below 0.25%. Final volume was 100 uL for 96-well plate and 50 uL for 384-well plate. The cell plate was then placed in an incubator at 37° C. with 5% CO2 for 24 hours.
# (§4) The cells were then gently washed with 50 uL-100 uL cold PBS before proceeding to addition of lysis buffer. 30 uL-50 μL of room temperature lysis buffer with DNAse I (and optionally RNAsin) was added to each well. Cells were shaken/mixed thoroughly at room temperature for 5-10 minutes for lysis to take place and then 3 uL-5 μL of room temperature stop solution was added and wells were shaken/mixed again. After 2-5 minutes, the cell lysate plate was transferred to ice for RT-qPCR reaction setup. The lysates could also be frozen at −80° C. for later use.
# (§5) In some cases, a direct lysis buffer was used. An appropriate volume of 3× lysis buffer (10 mM Tris, 150 mM NaCl, 1.5%-2.5% Igepal and 0.1-1 U/uL RNAsin, pH 7.4) was directly added to either K562 or A673 cells in media and mixed by pipetting 3 times. The plates were then incubated at room temperature with shaking/rocking for 20-50 minutes to allow for lysis to take place. After this time, the cell lysate plate was transferred to ice to set up for the RT-qPCR reactions. The lysates could also be frozen at −80° C. for later use.
# (§6) To set up 10 uL RT-qPCR reactions, cell lysates were transferred to 384-well qPCR plates containing the master mix according to the table below. The plates were sealed, gently vortexed, and spun down before the run. The volumes were adjusted accordingly in some instances where the reaction was carried in 20 μL. The table below summarizes the components of the RT-qPCR reactions:
# (§7) The RT-qPCR reaction was performed using a QuantStudio (ThermoFisher) under the following fast cycling conditions. […]
# HTT [2] = experiment: Splicing RT-qPCR assay, HTT mRNA canonical junction (CJ) and alternative junction (AJ); details: Homo sapiens; for AC50: increase in AJ mRNA
# Experimental: as §1, §2, §3, §4, §5, §6, §7
# Target C [3] = experiment: Splicing RT-qPCR panel, Target C canonical junction (CJ) mRNA; details: Homo sapiens, read-out: Target C IC50 (decrease in CJ mRNA levels)
# Experimental: as §1, §2, §3, §4, §5, §6, §7
# SMN2 = experiment: Splicing RT-qPCR panel, SMN2 canonical junction (CJ) mRNA; details: Homo sapiens, RT-qPCR panel, canonical junction mRNA; compound concentration having 50% response in CJ decrease; read-out: SMN2 IC50 (decrease in CJ mRNA levels)
# Experimental: as §1, §2, §3, §4, §5, §6, §7
# MYB [4] = experiment: HiBiT protein abundance assay, MYB; details: Homo sapiens, K562, 24 h, modified K562 cells
# Experimental: (§8) Compounds described herein were used to screen for effects on quantitative protein abundance using a HiBit assay system (Promega). Quantitative protein abundance was determined by measuring the protein levels of HiBit-tagged protein targets expressed in cell culture via luminescence using the Nano-Glo HiBiT Lytic Detection System, which uses a split complementation assay format to reconstitute NanoBiT enzyme to generate a luminescent signal. A protein abundance assay was developed such that endogenous protein targets could be modified with the HiBiT peptide tag and their abundance could be assessed after compound treatment. Briefly, K562 cell lines containing a HiBiT-modification were treated with various compounds described herein (e.g., compounds of Formulas (I), (II), or (III)). After treatment for 24 hours, the protein abundance of a specific target was determined by measuring luminescence.
# (§9) Cells were maintained in IMIDM with 10% FBS. Before the assay, cells were diluted with […] growth media (IMIDM+[…] media) and were seeded in a 384-well plate at a density of 10000 cells/well (for each cell line listed in Table 12). Each compound was prepared as a 10-point 3-fold serial dilution in DMSO with the top dose at a final concentration of 10 μM in the well. Unmodified K562 cells were added at the previously specified density with DMSO to serve as an assay baseline and positive control (PC) and DMSO only with the respective modified cell lines was added to the negative control (NC) columns. Final DMSO concentration was kept at or below 0.25%. Treated cell plates were placed in an incubator at 37° C. with 5% CO2 for 24 hours. After 24 hours, 25 μL of Complete HiBit Lytic reagent was added to each well at room temperature (e.g. one plate requiring 10 mL Lytic Buffer, 100 μL LgBiT Protein, 200 μL Lytic Substrate), shaken for 5 minutes at 600 RPM, then left to sit for 10 minutes for signal to stabilize before reading on a Spark Cyto plate reader (Tecan) with a 500 ms measurement time.
# (§10) To determine compound effects on protein abundance of each target in Table 12, the percent response for each respective cell line was calculated at each compound concentration as follows:
# (§11) For the normalized response at each concentration, a four-parameter logistical regression was fit to the data and the response was interpolated at the 50% value to determine a concentration for protein abundance at 50% (IC50) the untreated control.
# Target C [5] = experiment: HiBiT protein abundance assay, Target C; details: Homo sapiens, K562, 24 h, modified K562 cells
# Experimental: • Promega Nano-Glo HiBiT Lytic Detection System (cat #N3030) • Coming 384-well TC-treated microplates (cat #3570) • Synthego Engineered Cells Knock-In Clones
# as §9, §10, §11
# HTT [6] = experiment: HiBiT protein abundance assay, HTT; details: Homo sapiens, K562, 24 h, modified K562 cells
# Experimental: as §8, §9, §10, §11
# [7] = 24 h, decrease in CJ mRNA, A673 or K562 cells, 24 hours treatment, RT-qPCR, read-out: MYB CJ IC50
# [8] = 24 h, A673 or K562 cells, 24 hours treatment, RT-qPCR
# [9] = RT-qPCR panel, canonical junction mRNA, compound concentration having 50% response in CJ decrease, read-out: MYB IC50 (decrease in CJ mRNA levels)
# [10] = RT-qPCR panel, canonical junction mRNA, compound concentration having 50% response in CJ decrease, read-out: HTT IC50 (decrease in CJ mRNA levels)
# [11] = RT-qPCR panel, canonical junction mRNA, compound concentration having 50% response in CJ decrease
# [12] = 24 h, decrease in CJ mRNA, A673 or K562 cells, 24 hours treatment, RT-qPCR, read-out: HTT CJ IC50
Structure (SMILES),IC50 (MYB [1]; [7]) [nM],AC50 (MYB [1]; [8]) [nM],IC50 (MYB [1]; [9]) [nM],AC50 (HTT [2]; [8]) [nM],IC50 (HTT [2]; [10]) [nM],IC50 (Target C [3]; [11]) [nM],IC50 (SMN2) [nM],IC50 (HTT [2]; [12]) [nM],IC50 (MYB [4]; Table 13B) [nM],IC50 (Target C [5]; Table 13B) [nM],"IC50 (MYB [1]; gene panel, CJ qPCR, protocol of Example 142, read-out: MYB IC50 (decrease in CJ mRNA levels)) [nM]","IC50 (Target C [3]; gene panel, CJ qPCR, protocol of Example 142) [nM]",IC50 (HTT [6]; Table 13B) [nM],IC50 (MYB [4]; Table 13A) [nM],IC50 (Target C [5]; Table 13A) [nM],IC50 (HTT [6]; Table 13A) [nM]
c1cnn(-c2ccc(-c3ccc(O[C@@H]4C[C@H]5CC[C@@H](C4)N5)nn3)c3cn[nH]c23)c1 [Compound 308],< 100,< 100,< 100,< 100,< 100,< 100,< 100,–,–,–,–,–,–,–,–,–
CN(c1ccc(-c2ccc(-n3cccn3)c3nn[nH]c23)nn1)[C@@H]1C[C@H]2CC[C@@H](C1)N2 [Compound 119],100 to 1000,100 to 1000,100 to 1000,1000 to 10000,100 to 1000,100 to 1000,100 to 1000,100 to 1000,–,–,–,–,–,–,–,–
C[C@H]1C[C@@H](N(C)c2ccc(-c3ccc(-n4cccn4)c(=O)[nH]3)nn2)CCN1 [Compound 903],–,–,–,–,–,–,–,–,> 10000,> 10000,> 10000,> 10000,> 10000,–,–,–
C[C@H]1C[C@@H](N(C)c2ccc(-c3ccc(-n4cccn4)c4cc[nH]c34)nn2)CCN1 [Compound 111],1000 to 10000,> 10000,1000 to 10000,> 10000,–,> 10000,–,–,–,–,–,–,–,1000 to 10000,1000 to 10000,1000 to 10000
CN(c1ccc(-c2ccc(-n3cccn3)c3[nH]ncc23)nn1)[C@@H]1C[C@H]2CC[C@@H](C1)N2 [Compound 409],100 to 1000,100 to 1000,100 to 1000,< 100,< 100,< 100,< 100,–,–,–,–,–,–,–,–,–
CN(c1ccc(-c2ccc(-c3cn[nH]c3)c3ccsc23)nn1)C1CC(C)(C)NC(C)(C)C1 [Compound 131],> 10000,> 10000,> 10000,> 10000,1000 to 10000,–,100 to 1000,1000 to 10000,–,–,–,–,–,–,–,–
C[C@@H]1C[C@H](N(C)c2ccc(-c3ccc(-c4cn[nH]c4)c4nn[nH]c34)nn2)CCN1 [Compound 115],> 10000,> 10000,> 10000,–,–,–,–,–,–,–,–,–,–,> 10000,> 10000,> 10000
